Molecular target: T1, enzymes in the synthesis of aldosterone (Rattus norvegicus, UniProt P30099)
T1 construct: adrenal capsule/glomerulosa homogenates were prepared (6 mg/ml); from tissue; host or cells: adrenal capsule/glomerulosa of sodium-deficient young male Sprague-Dawley rats (homogenate, 500xg supernatant)
Experiment: inhibition of aldosterone formation from [3H]-DOC in adrenal capsule/glomerulosa homogenates
Format: biochemical, Sprague-Dawley rats
Conditions: Kitz-Wilson plots, rat adrenal capsule/glomerulosa homogenate
Procedure: Young male Sprague-Dawley rats were maintained on a sodium-deficient diet for about two weeks prior to use. From these animals, adrenal capsule/glomerulosa homogenates were prepared (6 mg/ml) in pH 7.4 assay buffer [MgCl2 8.5 mM, CaCl2 2.7 mM, KCl 3.13 mM, NaCl 7.591 mM, TRIS 50 mM and 0.1% triethylamine] and centrifuged 500xg for 10 minutes.
Assays were conducted in 35 ml glass tubes maintained at 25° C. in a Dubnoff shaker with 95% O2 /5% CO2. The tubes contained the following material: 100 μl of an NADPH+ generating system, 300 μl of adrenal capsular/glomerulosa cytosol, and 50 μl of test compound or buffer (control). After initial preincubation intervals of 20 minutes, the 10-minute assay was started by the addition of 50 μl of tritium-labelled substrate, i.e., 1 μM [^3 H]-DOC. Reactions were quenched by the addition of 5 ml of ethyl acetate and non-radiolabelled steroids were also added. […]
Substrate remaining and products formed were monitored by UV absorbance at 246 nm and the amount of steroid compound present was quantified by [^3 H] radioactivity. […] The Ki time-dependent inhibition and the t1/2 for enzyme inactivation at infinite inhibitor concentration (t50) was determined by the linear regression analyses of t1/2 vs. 1/[I] data of Kitz-Wilson plots Using this procedure, the following results were observed: […]

SMILES | t50 (t1/2 for enzyme inactivation at infinite inhibitor concentration)
CN(C1CC1)[C@H]1CC[C@H]2[C@@H]3CCC4=CC(=O)CC[C@]4(C)[C@H]3CC[C@]12C [17β-[N-methyl(cyclopropylamino)]androst-4-en-3-one] | 15.4 min
CN(C1CC1)[C@H]1CC[C@H]2[C@@H]3CC=C4C[C@@H](O)CC[C@]4(C)[C@H]3CC[C@]12C [17β-[N-methyl(cyclopropylamino)]androst-5-en-3β-ol] | 9.0 min
